This note sets out measurements from patent US20120083471A1, “Novel Compounds, Pharmaceutical Compositions Containing Same, Methods of Use for Same, and Methods for Preparing Same” (priority 2008, published 2012).

In data set [1] the test system is DIO mice. Kind of data set: 10 d FSG67 treatment of DIO mice with Q-NMR assessment of adiposity. It counts as in vivo, mouse. The protocol: Q-NMR assessment of adiposity. Following 10 days of FSG67 treatment or vehicle by ip administration, the DIO mice were euthanized and carcasses were stored at −80° C. Carcasses were thawed for Q-NMR analysis. Measurement of fat, lean, and water mass was performed using an EchoMRI-100™ (Echo Medical Systems, Houston, Tex.) in the Molecular and Comparative Pathobiology Phenotyping Core.
Since FSG67 increased fatty acid oxidation and reduced food intake in DIO mice, we next used Q-NMR analysis to measure lean, fat and water mass in FSG67 treated and control mice to determine the composition of the tissue loss with FSG67 treatment. In an additional chronic treatment experiment, 10 DIO mice were treated with FSG67 (5 mg/kg/d, ip) and 10 received vehicle for 10 days. The FSG67 treated mice lost 6.1±0.9 g (13.1±1.9%) while vehicle controls lost 1.1±0.4 g (2.3±0.8%) (p<0.0001. 2-way ANOVA). […] At the conclusion of the experiment, the FSG67 treated mice weighed 4.4 g less than the vehicle controls, which could be accounted for by the 4.0 g difference in fat mass. Thus, GPAT inhibition selectively reduces adiposity in DIO mice.

Data set [2] deals with lean mice. The experiment in a line: Conditioned taste aversion, two-bottle choice. It counts as in vivo, mouse. Conditions: 5 mg/kg or 20 mg/kg ip, listed as FSG67. The protocol: Conditioned taste aversion. Ten days before testing, eighteen male C57/BL6 mice were placed on a schedule of 2 h daytime access to water. On the test day, mice were divided into three groups and were given access to 0.15% sodium saccharin rather than water for 30 min. Immediately after saccharin access, mice were injected ip with RPMI vehicle or FSG67 (5 and 20 mg/kg body wt) and were allowed water access for the remaining 90 min. Twenty-four hours later, mice were given 2h access to a two-bottle choice test of 0.15% saccharin vs. water. Intakes of both solutions were recorded, and data were expressed as saccharin preference (100× saccharin intake/saccharin intake+water intake).
GPAT inhibition with FSG67 decreased body weight in DIO mice consuming a high fat diet. FSG67 treated DIO mice lost 4.3±0.5% (1.7±0.2 g) of body mass versus a 5.3±0.4% (2.1±0.2 g) loss for fasted mice (FIG. 11c). Compared to the vehicle control mice which lost 2.5±0.6% (1.0±0.2 g) the weight loss was significant in both the FSG67 treated (p=0.026, 2-tailed t-test) and fasted mice (p=0.002, 2-tailed t-test). […] Thus, the reduction in food intake from FSG67 was not due to sickness behavior (FIG. 11e).

The subject of data set [3] is DIO mice. Kind of data set: 5-day dose ranging study in DIO mice. Format: in vivo, mouse. Conditions: 5 days. The protocol:
To determine the dose of FSG67 suitable for chronic treatment, we performed a 5-day dose ranging study in DIO mice, four per group, with daily intraperitoneal doses of 1, 2, and 5 mg/kg (FIG. 17). The 5 mg/kg dose led to significant weight loss of 3.9% compared to vehicle controls (p=0.008, 2-way ANOVA). This dose was chosen for the subsequent chronic treatment experiments.

The test system of data set [4] is lean mice. Kind of data set: Acute single-dose FSG67 treatment of lean mice (body weight, food intake). Format: in vivo. The conditions noted are these: single 20 mg/kg ip. From the text:
DIO and lean mouse models. All animal experimentation was done in accordance with guidelines on animal care and use as established by the Johns Hopkins University School of Medicine IACUC. DIO C57BL6J male mice were obtained from Jackson Laboratory (Bar Harbor, ME) and fed a synthetic diet comprised of 60% calories from fat, 20% from carbohydrate, and 20% from protein (5.2 kcal/g) post-weaning through the experimental procedures (D12492i, Research Diets, Inc., New Brunswick, N.J.). For lean animal studies, twelve-week old C57BL6J male mice (Jackson Laboratory, Bar Harbor, Me.) were fed rodent chow comprised of 13% calories from fat, 58% from carbohydrate, and 29% from protein (4.1 kcal/g) (Prolab RMH 2500, PMI Nutrition International Inc., Brentwood, Mo.). Mice were maintained in 12 hr light-dark cycle at 25° C. for 1 week for acclimatization prior to treatment. In all studies, FSG67 (FASgen, Inc., Baltimore, Md.) was dissolved in RPMI 1640 (Invitrogen, Carlsbad, Calif.).
For acute studies, 6 DIO or lean mice were treated with a single dose of FSG67 (20 mg/kg, i.p.) approximately 3 hrs past lights-on. Animal weights and food consumption were measured 18 h after treatment. Following euthanization, the hypothalmuses were harvested to measure orexigenic and anorexigenic neuropeptide gene expression. […] Body weight and food intake were measured daily. In one study, a cohort of mice was pair-fed with amounts consumed by the FSG67-treated animals and mice were monitored with indirect calorimetry (Oxymax Equal Flow System®, Columbus Instruments, Columbus, Ohio). Measurements of VO2 (ml/kg/hr) and VCO2 (ml/kg/hr) were performed and recorded every 15 min. The respiratory exchange ratio (RER) was calculated by Oxymax software, version 5.9, and is defined as ratio of VCO2 to VO2 33. […] Tissues were harvested immediately for RNA extraction; serum was collected and analyzed for glucose, cholesterol, and triglyceride measurements (Bioanalytics, Gaithersburg, Md.). […]

Entries after “also recorded” stand apart in the source; their conditions may differ.

For `CCCCCCCCCS(=O)(=O)Nc1ccccc1C(=O)O` [Compound 15g, 2-(Nonylsulfonamido)benzoic acid], the “reduction in fat mass compared to vehicle controls (Q-NMR)” value in data set [1] (5 mg/kg ip daily, 10 d) worked out at 4.0 g. The “lean and water mass (Q-NMR)” value in data set [1] (5 mg/kg ip daily, 10 d, listed as FSG67, 5 mg/kg) is “no significant change; also recorded: unaffected”. The “final weight difference to vehicle controls” value in data set [1] (conclusion of 10 d experiment) turned out to be 4.4 g. Further, in data set [2], the “conditioned taste aversion (saccharin intake)” value was “failed to produce a significant reduction in saccharin intake; also recorded: did not induce conditioned tasted aversion”. Further, the “weight loss compared to vehicle controls” value in data set [3] (5 mg/kg ip daily) is 3.9%. Besides, in data set [3] (daily ip, doses 1, 2, 5 mg/kg), the “minimum dose that led to significant weight loss” value was found to be 5 mg/kg. Moreover, in data set [4] (lean mice), the food consumption was 1.4 ± 0.2 g and the “food consumption, % of vehicle control” value is listed as 33%. In addition, the overt toxicity entry in data set [4] (lean or DIO mice) is on record as “No overt toxicity”.
